Laboratory results as given in PubChem BioAssay (NCI).
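Test compounds were applied to cells in 96-well plates for 48 hours at 5 doses. At the GI50, growth is halved. TGI: concentration producing complete growth inhibition.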

Assays:
Assay in all cases: growth of human tumour cells (NCI), 48 h
[1] = test system: SF-539 CNS
[2] = test system: T-47D breast
[3] = test system: DU-145 prostate
[4] = test system: SF-268 CNS
[5] = test system: EKVX NSCLC
[6] = test system: UACC-62 melanoma
[7] = test system: NCI-H460 lung
[8] = test system: MOLT-4 leukemia
[9] = test system: PC-3 prostate
[10] = test system: M14 melanoma

COc1cc2c(cc1OCCCCCOc1cc3c(cc1OC)C(=O)N1CC(F)C[C@H]1C=N3)N=C[C@@H]1CC(F)CN1C2=O (some centres not stated)
GI50 [1]: 0.0161 µM | TGI [1]: 0.458 µM | GI50 [2]: 0.265 µM | TGI [2]: 14 µM | GI50 [3]: 0.097 µM | TGI [3]: 2.67 µM | GI50 [4]: < 0.01 µM | TGI [4]: 1.19 µM | GI50 [5]: 1.1 µM | TGI [5]: 7.78 µM | GI50 [6]: 0.0511 µM | TGI [6]: 0.224 µM | GI50 [7]: < 0.01 µM | TGI [7]: 0.143 µM | GI50 [8]: < 0.01 µM | TGI [8]: 0.0663 µM | GI50 [9]: 0.295 µM | TGI [9]: 1.49 µM | GI50 [10]: 0.0275 µM | TGI [10]: 0.272 µM

CCOC(=O)c1sc2ncn(Cc3cccc(Br)c3)c(=O)c2c1C
GI50 [1]: 84.5 µM | TGI [1]: > 100 µM | GI50 [2]: 36.5 µM | TGI [2]: > 100 µM | GI50 [3]: 88.8 µM | TGI [3]: > 100 µM | GI50 [4]: 54.9 µM | TGI [4]: > 100 µM | GI50 [5]: 25 µM | TGI [5]: > 100 µM | GI50 [6]: 19.5 µM | TGI [6]: 92.3 µM | GI50 [7]: 77.3 µM | TGI [7]: > 100 µM | GI50 [8]: 25.3 µM | TGI [8]: > 100 µM | GI50 [9]: 25.5 µM | TGI [9]: > 100 µM | GI50 [10]: 20.9 µM | TGI [10]: 53.8 µM

Fc1ccc(-c2nn3c(-c4ccc(F)c(Cl)c4)nnc3s2)cc1
GI50 [1]: > 50 µM | TGI [1]: > 50 µM | GI50 [2]: 34.8 µM | TGI [2]: > 50 µM | GI50 [3]: 36.3 µM | TGI [3]: > 50 µM | GI50 [4]: 38.7 µM | TGI [4]: > 50 µM | GI50 [5]: > 50 µM | TGI [5]: > 50 µM | GI50 [6]: 34.8 µM | TGI [6]: > 50 µM | GI50 [7]: 27.7 µM | TGI [7]: > 50 µM | GI50 [8]: 26.3 µM | TGI [8]: > 50 µM | GI50 [9]: 29.1 µM | TGI [9]: > 50 µM | GI50 [10]: > 50 µM | TGI [10]: > 50 µM

O=c1c2c3c(sc2n2c(-c4cc(-c5ccccc5)no4)nnc2n1Cc1ccccc1)CCCC3
GI50 [1]: 19.2 µM | TGI [1]: 72.2 µM | GI50 [2]: 3.55 µM | TGI [2]: 22.1 µM | GI50 [3]: 19.6 µM | TGI [3]: > 93.3 µM | GI50 [4]: 15.6 µM | TGI [4]: 68.3 µM | GI50 [5]: 8.63 µM | TGI [5]: > 67.6 µM | GI50 [6]: 17.1 µM | TGI [6]: 44 µM | GI50 [7]: 12.6 µM | TGI [7]: 36.8 µM | GI50 [8]: 3.72 µM | TGI [8]: 32.7 µM | GI50 [9]: 9.19 µM | TGI [9]: > 100 µM | GI50 [10]: 27.2 µM | TGI [10]: > 100 µM

C/C=C/C/C=C/CCC(=O)[C@H]1O[C@H]1C(N)=O
TGI [1]: 31.8 µM | GI50 [2]: 13.7 µM | TGI [2]: 34 µM | GI50 [3]: 13.7 µM | TGI [3]: 27.1 µM | TGI [4]: 39.3 µM | GI50 [5]: 14.1 µM | TGI [5]: 28.9 µM | GI50 [6]: 11.4 µM | TGI [6]: 23.9 µM | GI50 [7]: 17 µM | TGI [7]: 39.4 µM | GI50 [8]: 8.56 µM | TGI [8]: 52 µM | TGI [9]: 40.7 µM | GI50 [10]: 13.3 µM | TGI [10]: 30 µM

CCN(CC)c1ccc(/C=C2/C[N+](C)(C)C/C(=C/c3ccc(N(CC)CC)cc3)C2=O)cc1
TGI [1]: 6.19 µM | TGI [2]: 11.3 µM | TGI [3]: > 50.6 µM | TGI [4]: 11.2 µM | TGI [5]: 75.7 µM | TGI [6]: 4.84 µM | TGI [7]: 15 µM | TGI [8]: 4.83 µM | TGI [9]: 35.7 µM | TGI [10]: 7.07 µM

CC(=O)Nc1ccc(/C=C/C(=O)c2ccccc2)cc1
GI50 [1]: 14 µM | TGI [1]: 32.9 µM | GI50 [2]: 13.8 µM | TGI [2]: 42.3 µM | GI50 [3]: 3.13 µM | TGI [3]: 10.6 µM | GI50 [4]: 15.9 µM | TGI [4]: 37.5 µM | GI50 [5]: 16.6 µM | TGI [5]: 33.6 µM | GI50 [6]: 17.8 µM | TGI [6]: 39.2 µM | GI50 [7]: 17.6 µM | TGI [7]: 41.6 µM | GI50 [8]: 5.55 µM | TGI [8]: 68.4 µM | GI50 [9]: 23.2 µM | TGI [9]: 66.2 µM | GI50 [10]: 16 µM | TGI [10]: 33.3 µM
